# Assay results published in US11780839B2, “Compounds for treating Huntington's disease” (PTC THERAPEUTICS, INC., priority 2018, dated 2023).
# System: Endogenous Huntingtin Protein
# Experiment: Endogenous Huntingtin Protein Assay (ELISA-based Meso Scale Discovery electrochemiluminescence)
# Type: cell-based
# Settings: MSD electrochemiluminescence, Table 1
# Method in brief: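 Sandwich MSD electrochemiluminescence immunoassay. Capture used MW1 (expanded polyglutamine) or MAB2166 antibody coated at 1 μg/mL overnight at 4 °C. Samples were bound overnight at 4 °C, then a rabbit monoclonal detection antibody and SULFO-TAG anti-rabbit, each at 0.25 μg/mL, were applied for 1 h at room temperature.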
row,SMILES,IC50 [nM]
1,"CN(c1cnc(-c2ccc(-c3cnn(C)c3)cc2O)nn1)C1CC(C)(C)NC(C)(C)C1 [Cpd 196, 5-(1-methyl-1H-pyrazol-4-yl)-2-{6-[methyl(2,2,6,6-tetramethylpiperidin-4-yl)amino]-1,2,4-triazin-3-yl}phenol]",≤ 100
2,"COc1cc(-c2ccc(-c3cnc(N(C)C4CC(C)(C)NC(C)(C)C4)nn3)c(O)c2)ncn1 [Cpd 2, 5-(6-methoxypyrimidin-4-yl)-2-{3-[methyl(2,2,6,6-tetramethylpiperidin-4-yl)amino]-1,2,4-triazin-6-yl}phenol]",≤ 100
3,"N[C@@H]1CN(c2ncc(-c3ccc(-c4cn[nH]c4)cc3O)nn2)CC12CC2 [Cpd 115, 2-{3-[(7S)-7-amino-5-azaspiro[2.4]heptan-5-yl]-1,2,4-triazin-6-yl}-5-(1H-pyrazol-4-yl)phenol]",100 to 500
4,"CC(C)N[C@@H]1CCN(c2ncc(-c3ccc(-c4cn[nH]c4)cc3O)nn2)C1 [Cpd 348, 2-(3-{(3R)-3-[(propan-2-yl)amino]pyrrolidin-l-yl}-1,2,4-triazin-6-yl)-5-(1H-pyrazol-4-yl)phenol]",≤ 100
5,"Oc1cc(-c2cn[nH]c2)ccc1-c1cnc(N2CC3CCNC3C2)nn1 (stereo not drawn) [Cpd 370, 2-[3-(hexahydropyrrolo[3,4-b]pyrrol-5(1H)-yl)-1,2,4-triazin-6-yl]-5-(1H-pyrazol-4-yl)phenol]",≤ 100
6,"CN(c1ncc(-c2ccc(-c3cc(F)ccn3)cc2O)nn1)C1CC(C)(C)NC(C)(C)C1 [Cpd 98, 5-(4-fluoropyridin-2-yl)-2-{3-[methyl(2,2,6,6-tetramethylpiperidin-4-yl)amino]-1,2,4-triazin-6-yl}phenol]",100 to 500
7,"CN(c1ncc(-c2ccc(-c3ccc(O)cc3)cc2O)nn1)C1CC(C)(C)NC(C)(C)C1 [Cpd 103, 4-{3-[methyl(2,2,6,6-tetramethylpiperidin-4-yl)amino]-1,2,4-triazin-6-yl}[1,1'-biphenyl]-3,4’-diol]",≤ 100
8,"Oc1cc(-c2cn[nH]c2)ccc1-c1cnc(N2CC[C@H]3NCC[C@@H]32)nn1 [Cpd 332, 2-{3-[(3aR,6aS)-hexahydropyrrolo[3,2-b]pyrrol-1(2H)-yl]-1,2,4-triazin-6-yl}-5-(1H-pyrazol-4-yl)phenol]",≤ 100
9,"CC1(C)CC(Nc2ncc(-c3ccc(-c4ncco4)cc3O)nn2)CC(C)(C)N1 [Cpd 352, 5-(1,3-oxazol-2-yl)-2-{3-[(2,2,6,6-tetramethylpiperidin-4-yl)amino]-1,2,4-triazin-6-yl}phenol]",≤ 100
10,"CN(c1ncc(-c2ccc(-c3cc(C#N)c4nccn4n3)cc2O)nn1)C1CC(C)(C)NC(C)(C)C1 [Cpd 344, 6-(3-hydroxy-4-{3-[methyl(2,2,6,6-tetramethylpiperidin-4-yl)amino]-1,2,4-triazin-6-yl}phenyl)imidazo[1,2-b]pyridazine-8-carbonitrile]",≤ 100
11,"Cn1nnc(-c2ccc(-c3cnc(N[C@H]4CC(C)(C)NC(C)(C)[C@H]4F)nn3)c(O)c2)n1 [Cpd 291, 2-(3-{[(3S,4S)-3-fluoro-2,2,6,6-tetramethylpiperidin-4-yl]amino}-1,2,4-triazin-6-yl)-5-(2-methyl-2H-tetrazol-5-yl)phenol]",≤ 100
12,"Oc1cc(-c2cn[nH]c2)ccc1-c1cnc(N2CC3(CNC3)C2)nn1 [Cpd 118, 2-[3-(2,6-diazaspiro[3.3]heptan-2-yl)-1,2,4-triazin-6-yl]-5-(1H-pyrazol-4-yl)phenol]",100 to 500
13,"Cc1ncc(-c2ccc(-c3cnc(NC4CC(C)(C)NC(C)(C)C4)nn3)c(O)c2)o1 [Cpd 277, 5-(2-methyl-1,3-oxazol-5-yl)-2-{3-[(2,2,6,6-tetramethylpiperidin-4-yl)amino]1,2,4-triazin-6-yl}phenol]",≤ 100
14,"COc1ncnc(-c2ccc(-c3cnc(N(C)C4CC(C)(C)NC(C)(C)C4)nn3)c(O)c2)n1 [Cpd 88, 5-(4-methoxy-1,3,5-triazin-2-yl)-2-{3-[methyl(2,2,6,6-tetramethylpiperidin-4-yl)amino]-1,2,4-triazin-6-yl}phenol]",≤ 100
15,"CN(c1cnc(-c2ccc(-c3ncccn3)cc2O)nn1)C1CC(C)(C)NC(C)(C)C1 [Cpd 402, 2-{6-[methyl(2,2,6,6-tetramethylpiperidin-4-yl)amino]-1,2,4-triazin-3-yl}-5-(pyrimidin-2-yl)phenol]",≤ 100
16,"CN(c1ncc(-c2ccc(-c3ccc4c(c3)nnn4C)cc2O)nn1)C1CC(C)(C)NC(C)(C)C1 [Cpd 200, 5-(1-methyl-1H-benzotriazol-5-yl)-2-{3-[methyl(2,2,6,6-tetramethylpiperidin-4-yl)amino]-1,2,4-triazin-6-yl}phenol]",≤ 100
17,"CN1CC[C@H](Oc2ncc(-c3ccc(-c4cn[nH]c4)cc3O)nn2)C1 [Cpd 309, 2-(3-{[(3S)-1-methylpyrrolidin-3-yl]oxy}-1,2,4-triazin-6-yl)-5-(1H-pyrazol-4-yl)phenol]",> 500
18,"CN(c1ncc(-c2ccc(-c3cc4cnn(C)c4cn3)cc2O)nn1)C1CC(C)(C)NC(C)(C)C1 [Cpd 222, 5-(1-methyl-1H-pyrazolo[3,4-c]pyridin-5-yl)-2-{3-[methyl(2,2,6,6-tetramethylpiperidin-4-yl)amino]-1,2,4-triazin-6-yl}phenol]",≤ 100
19,"Cc1cc(-c2ccc(-c3cnc(N(C)C4CC(C)(C)NC(C)(C)C4)nn3)c(O)c2)nc(O)c1N [Cpd 168, 3-amino-6-(3-hydroxy-4-{3-[methyl(2,2,6,6-tetramethylpiperidin-4-yl)amino]-1,2,4-triazin-6-yl}phenyl)-4-methylpyridin-2-ol]",100 to 500
20,"CN(c1ncc(-c2ccc(-c3cnn(C)c(=O)c3)cc2O)nn1)C1CC(C)(C)NC(C)(C)C1 [Cpd 147, 5-(3-hydroxy-4-{3-[methyl(2,2,6,6-tetramethylpiperidin-4-yl)amino]-1,2,4-triazin-6-yl}phenyl)-2-methylpyridazin-3(2H)-one]",≤ 100
21,"CC1(C)CC(Oc2ncc(-c3ccc(-c4c[nH]nc4F)cc3O)nn2)CC(C)(C)N1 [Cpd 72, 5-(3-fluoro-1H-pyrazol-4-yl)-2-{3-[(2,2,6,6-tetramethylpiperidin-4-yl)oxy]-1,2,4-triazin-6-yl}phenol]",≤ 100
22,"CN1CCC12CCN(c1ncc(-c3ccc(-c4cn[nH]c4)cc3O)nn1)CC2 [Cpd 113, 2-[3-(1-methyl-1,7-diazaspiro[3.5]nonan-7-yl)-1,2,4-triazin-6-yl]-5-(1H-pyrazol-4-yl)phenol]",100 to 500
23,"Cc1ncc(-c2ccc(-c3cnc(N(C)C4CC(C)(C)NC(C)(C)C4)nn3)c(O)c2)s1 [Cpd 64, 2-{3-[methyl(2,2,6,6-tetramethylpiperidin-4-yl)amino]-1,2,4-triazin-6-yl}-5-(2-methyl-1,3-thiazol-5-yl)phenol]",≤ 100
24,"CN(c1ncc(-c2ccc(-c3ccn4nncc4c3)cc2O)nn1)C1CC(C)(C)NC(C)(C)C1 [Cpd 152, 2-{3-[methyl(2,2,6,6-tetramethylpiperidin-4-yl)amino]-1,2,4-triazin-6-yl}-5-([1,2,3]triazolo[1,5-a]pyridin-5-yl)phenol]",≤ 100
25,"CN(c1ncc(-c2ccc(-c3c[nH]nc3F)cc2O)nn1)C1CC(C)(C)NC(C)(C)C1 [Cpd 12, 5-(3-fluoro-1H-pyrazol-4-yl)-2-{3-[methyl(2,2,6,6-tetramethylpiperidin-4-yl)amino]-1,2,4-triazin-6-yl}phenol]",≤ 100

# The next lines start with the values.
row,IC50 [nM],SMILES
1,≤ 100,"Cn1cc(-c2ccc(-c3cnc(N4CCC(CNC5CCC5)C4)nn3)c(O)c2)cn1 (stereo not drawn) [Cpd 416, 2-(3-{3-[(cyclobutylamino)methyl}pyrrolidin-1-yl}-1,2,4-triazin-6-yl)-5-(1-methyl-1H-pyrazol-4-yl)phenol]"
2,1000 to 3000,"CC(C)NC1CCN(c2ncc(-c3ccc(-c4cn5ccnc5cn4)cc3O)nn2)C1 (stereo not drawn) [Cpd 283, 5-(imidazo[1,2-a]pyrazin-6-yl)-2-(3-{3-[(propan-2-yl)amino]pyrrolidin-1-yl}-1,2,4-triazin-6-yl)phenol]"
3,100 to 500,"CNC1CCN(c2ncc(-c3ccc(-c4nnn(C)n4)cc3O)nn2)C1 (stereo not drawn) [Cpd 320, 2-{3-[3-(methylamino)pyrrolidin-1-yl]-1,2,4-triazin-6-yl}-5-(2-methyl-2H-tetrazol-5-yl)phenol]"
4,1000 to 3000,"CC(C)(C)NC1CCN(c2ncc(-c3ccc(-c4ccn5nncc5c4)cc3O)nn2)C1 (stereo not drawn) [Cpd 207, 2-{3-[3-(tert-butylamino)pyrrolidin-l-yl]-1,2,4-triazin-6-yl}-5-([1,2,3]triazolo[1,5-a]pyridin-5-yl)phenol]"
5,≤ 100,"CC(C)NC1CCN(c2ncc(-c3ccc(-c4cnn(C)n4)cc3O)nn2)C1 (stereo not drawn) [Cpd 236, 5-(2-methyl-2H-1,2,3-triazol-4-yl)-2-(3-{3-[(propan-2-yl)amino]pyrrolidin-1-yl}-1,2,4-triazin-6-yl)phenol]"
6,≤ 100,"Cn1cc(-c2ccc(-c3cnc(N4CCC(NC(C)(C)C)C4)nn3)c(O)c2)cn1 (stereo not drawn) [Cpd 202, 2-{3-[3-(tert-butylamino)pyrrolidin-l-yl]-1,2,4-triazin-6-yl}-5-(1-methyl-1H-pyrazol-4-yl)phenol]"
7,≤ 100,"CC(C)(C)N[C@@H]1CCN(c2ncc(-c3ccc(-c4cn[nH]c4)cc3O)nn2)C1 [Cpd 356, 2-{3-[(3R)-3-(tert-butylamino)pyrrolidin-l-yl]-1,2,4-triazin-6-yl}-5-(1H-pyrazol-4-yl)phenol]"
8,≤ 100,"CN(C)CC1CCN(c2ncc(-c3ccc(-c4cn[nH]c4)cc3O)nn2)C1 (stereo not drawn) [Cpd 410, 2-(3-{3-[(dimethylamino)methyl]pyrrolidin-1-yl}-1,2,4-triazin-6-yl)-5-(1H-pyrazol-4-yl)phenol]"
9,≤ 100,"Oc1cc(-c2cn[nH]c2)ccc1-c1cnc(N2CC[C@@H](NC3CCC3)C2)nn1 [Cpd 399, 2-{3-[(3R)-3-(cyclobutylamino)pyrrolidin-1-yl]-1,2,4-triazin-6-yl}-5-(1H-pyrazol-4-yl)phenol]"
10,100 to 500,"CC(C)NC1CCN(c2ncc(-c3ccc(-c4cc(=O)n(C)cn4)cc3O)nn2)C1 (stereo not drawn) [Cpd 234, 6-[3-hydroxy-4-(3-{3-[(propan-2-yl)amino]pyrrolidin-1-yl}-1,2,4-triazin-6-yl)phenyl]-3-methylpyrimidin-4(3H)-one]"
11,≤ 100,"OCCCNC1CCN(c2ncc(-c3ccc(-c4cn[nH]c4)cc3O)nn2)C1 (stereo not drawn) [Cpd 371, 2-(3-{3-[(3-hydroxypropyl)amino]pyrrolidin-1-yl}-1,2,4-triazin-6-yl)-5-(1H-pyrazol-4-yl)phenol]"
